Experiments:
[1] = target: GST-tagged recombinant human TYRO3 kinase domain (Homo sapiens (Human), UniProt Q06418); details: read-out: TYRO3 enzyme IC50
[2] = target: His-tagged recombinant human MER cytoplasmic domain (Homo sapiens (Human), UniProt Q12866); details: read-out: MER enzyme IC50
Procedure: (§1) Compounds of Formula I were screened for their ability to inhibit AXL kinase using Invitrogen's LanthaScreen™ Eu Kinase Binding technology. […] After a 60-minute incubation at 22° C., the reaction was measured using a PerkinElmer EnVision multimode plate reader via TR-FRET dual wavelength detection, and the percent of control (POC) was calculated using a ratiometric emission factor. […] The POC values are fit to a 4 parameter logistic curve and the IC50 value is point where the curve crosses 50 POC.

[3] = target: His-tagged recombinant human AXL cytoplasmic domain (Homo sapiens (Human), UniProt P30530); details: read-out: AXL enzyme IC50
Sequence of His-tagged recombinant human AXL cytoplasmic domain (P30530 473-894): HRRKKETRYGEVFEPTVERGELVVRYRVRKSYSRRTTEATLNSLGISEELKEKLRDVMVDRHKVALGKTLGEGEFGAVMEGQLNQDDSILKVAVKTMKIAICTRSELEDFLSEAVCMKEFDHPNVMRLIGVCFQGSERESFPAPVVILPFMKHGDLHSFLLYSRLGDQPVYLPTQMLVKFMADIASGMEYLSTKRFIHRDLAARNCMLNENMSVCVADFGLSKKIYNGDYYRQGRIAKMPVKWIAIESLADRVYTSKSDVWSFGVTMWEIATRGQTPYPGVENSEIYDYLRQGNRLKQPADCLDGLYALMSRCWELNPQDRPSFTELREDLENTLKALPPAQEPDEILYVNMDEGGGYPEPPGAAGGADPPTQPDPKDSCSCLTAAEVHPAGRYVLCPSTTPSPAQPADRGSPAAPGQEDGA
Procedure: as §1

Sequence of GST-tagged recombinant human TYRO3 kinase domain (Q06418 518-790): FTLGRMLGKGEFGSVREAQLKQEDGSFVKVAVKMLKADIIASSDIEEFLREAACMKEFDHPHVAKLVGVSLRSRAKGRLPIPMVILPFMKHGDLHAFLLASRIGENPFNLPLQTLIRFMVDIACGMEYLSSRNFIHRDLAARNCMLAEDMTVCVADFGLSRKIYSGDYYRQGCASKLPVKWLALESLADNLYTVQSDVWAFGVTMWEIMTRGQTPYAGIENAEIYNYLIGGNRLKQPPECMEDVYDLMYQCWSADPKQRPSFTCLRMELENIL
Sequence of His-tagged recombinant human MER cytoplasmic domain (Q12866 527-999): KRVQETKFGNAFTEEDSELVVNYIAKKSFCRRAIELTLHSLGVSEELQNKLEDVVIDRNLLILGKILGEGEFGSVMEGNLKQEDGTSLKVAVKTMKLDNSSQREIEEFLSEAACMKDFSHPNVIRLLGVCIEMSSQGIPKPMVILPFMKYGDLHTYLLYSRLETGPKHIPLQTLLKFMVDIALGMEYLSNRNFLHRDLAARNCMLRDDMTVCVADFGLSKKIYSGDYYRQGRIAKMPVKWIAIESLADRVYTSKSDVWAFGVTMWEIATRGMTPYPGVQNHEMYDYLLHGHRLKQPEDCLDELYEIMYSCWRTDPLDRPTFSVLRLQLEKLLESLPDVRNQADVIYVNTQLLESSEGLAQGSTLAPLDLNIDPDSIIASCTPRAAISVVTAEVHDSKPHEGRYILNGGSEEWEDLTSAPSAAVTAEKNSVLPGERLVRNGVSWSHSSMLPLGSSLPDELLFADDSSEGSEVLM

IC50 [1]	IC50 [2]	IC50 [3]	Structure (SMILES)
1000 nM	161 nM	355 nM	C[C@H](CO)Nc1n[nH]c2nccc(Oc3ccc(NC(=O)C4CC5(CC5)CN(c5ccc(F)cc5)C4=O)cc3F)c12 (stereo partly drawn) [Example 140, N-(3-fluoro-4-((3-(((R)-1-hydroxypropan-2-yl)amino)-1H-pyrazolo[3,4-b]pyridin-4-yl)oxy)phenyl)-5-(4-fluorophenyl)-6-oxo-5-azaspiro[2.5]octane-7-carboxamide]
292 nM			COC[C@@H](C)Nc1n[nH]c2nccc(Oc3ccc(NC(=O)c4cc(C(C)C)nn(-c5ccc(F)cc5)c4=O)cc3F)c12 [Example 175, (R)-N-(3-fluoro-4-((3-((1-methoxypropan-2-yl)amino)-1H-pyrazolo[3,4-b]pyridin-4-yl)oxy)phenyl)-2-(4-fluorophenyl)-6-isopropyl-3-oxo-2,3-dihydropyridazine-4-carboxamide]
728 nM			COC[C@@H](C)Nc1n[nH]c2nccc(Oc3ccc(NC(=O)c4cc(C(C)C)nn(-c5ccc(F)cc5)c4=O)nc3)c12 [Example 176, (R)-2-(4-fluorophenyl)-6-isopropyl-N-(5-((3-((1-methoxypropan-2-yl)amino)-1H-pyrazolo[3,4-b]pyridin-4-yl)oxy)pyridin-2-yl)-3-oxo-2,3-dihydropyridazine-4-carboxamide]
707 nM			CC(C)(O)C1(Nc2n[nH]c3nccc(Oc4ccc(NC(=O)c5ccnn(-c6ccc(F)cc6)c5=O)cc4F)c23)CCCC1 [Example 182, N-(3-fluoro-4-((3-((1-(2-hydroxypropan-2-yl)cyclopentyl)amino)-1H-pyrazolo[3,4-b]pyridin-4-yl)oxy)phenyl)-2-(4-fluorophenyl)-3-oxo-2,3-dihydropyridazine-4-carboxamide]

Continued, compound first:

Structure (SMILES)	IC50 [1]	IC50 [2]	IC50 [3]
C[C@H](CO)Nc1n[nH]c2nccc(Oc3ccc(NC(=O)C4(C)CCCN(c5ccc(F)cc5)C4=O)cc3F)c12 (stereo partly drawn) [Example 141, N-(3-fluoro-4-((3-(((R)-1-hydroxypropan-2-yl)amino)-1H-pyrazolo[3,4-b]pyridin-4-yl)oxy)phenyl)-1-(4-fluorophenyl)-3-methyl-2-oxopiperidine-3-carboxamide]	1000 nM	178 nM	485 nM
COC[C@@H](C)Nc1n[nH]c2nccc(Oc3ccc(NC(=O)c4cc(C5CC5)cn(-c5ccc(F)cc5)c4=O)nc3)c12 [Example 177, (R)-5-cyclopropyl-1-(4-fluorophenyl)-N-(5-((3-((1-methoxypropan-2-yl)amino)-1H-pyrazolo[3,4-b]pyridin-4-yl)oxy)pyridin-2-yl)-2-oxo-1,2-dihydropyridine-3-carboxamide]	106 nM		
COC[C@@H](C)Nc1n[nH]c2nccc(Oc3ccc(NC(=O)c4cc(C)cn(-c5ccc(F)cc5)c4=O)nc3)c12 [Example 178, (R)-1-(4-fluorophenyl)-N-(5-((3-((1-methoxypropan-2-yl)amino)-1H-pyrazolo[3,4-b]pyridin-4-yl)oxy)pyridin-2-yl)-5-methyl-2-oxo-1,2-dihydropyridine-3-carboxamide]	439 nM		

Reference: US11104676B2 (priority 2018, dated 2021)
